From the supplement of paper PMC10307832

Assays:
Assay in all cases: relative viability (nuclei count vs DMSO), 5 days (fraction); higher = more cells survive
IPA-3 + Pictilisib = compound: C1=CC=C2C(=C1)C=CC(=C2SSC3=C(C=CC4=CC=CC=C43)O)O [IPA-3] + CS(=O)(=O)N1CCN(Cc2cc3nc(-c4cccc5[nH]ncc45)nc(N4CCOCC4)c3s2)CC1 [Pictilisib] (partner 1 µM)
In short: (§1)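 Lung cancer cell lines were pin-tool dosed in 1536-well plates on the day after seeding, with either a lone drug or a fixed anchor-drug dose plus five library-drug doses (not always all listed) in √10 steps. Nuclei were counted on 4× images after 5 days. Relative viability is the ratio of treated-well to vehicle-well nuclei counts, with each value a median of duplicate plates.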

RAF265 + Navitoclax = compound: Cn1c(Nc2ccc(C(F)(F)F)cc2)nc2cc(Oc3ccnc(-c4ncc(C(F)(F)F)[nH]4)c3)ccc21 [RAF265] + CC1(C)CCC(c2ccc(Cl)cc2)=C(CN2CCN(c3ccc(C(=O)NS(=O)(=O)c4ccc(N[C@H](CCN5CCOCC5)CSc5ccccc5)c(S(=O)(=O)C(F)(F)F)c4)cc3)CC2)C1 [Navitoclax] (partner 0.5 µM)
In short: as §1

IPA-3 + Palbociclib = compound: C1=CC=C2C(=C1)C=CC(=C2SSC3=C(C=CC4=CC=CC=C43)O)O [IPA-3] + CC(=O)c1c(C)c2cnc(Nc3ccc(N4CCNCC4)cn3)nc2n(C2CCCC2)c1=O [Palbociclib] (partner 0.5 µM)
In short: as §1

RAF265 + Linsitinib = compound: Cn1c(Nc2ccc(C(F)(F)F)cc2)nc2cc(Oc3ccnc(-c4ncc(C(F)(F)F)[nH]4)c3)ccc21 [RAF265] + C[C@]1(O)C[C@@H](c2nc(-c3ccc4ccc(-c5ccccc5)nc4c3)c3c(N)nccn32)C1 [Linsitinib] (partner 1 µM)
In short: as §1

Row | Cell Line | relative viability (IPA-3 + Pictilisib; first compound 0.2 µM) | relative viability (IPA-3 + Pictilisib; first compound 0.6325 µM) | relative viability (IPA-3 + Pictilisib; first compound 2 µM) | relative viability (IPA-3 + Pictilisib; first compound 6.325 µM) | relative viability (IPA-3 + Pictilisib; first compound 20 µM) | relative viability (RAF265 + Navitoclax; first compound 0.01 µM) | relative viability (RAF265 + Navitoclax; first compound 0.03162 µM) | relative viability (RAF265 + Navitoclax; first compound 0.1 µM) | relative viability (RAF265 + Navitoclax; first compound 0.3162 µM) | relative viability (RAF265 + Navitoclax; first compound 1 µM) | relative viability (IPA-3 + Palbociclib; first compound 0.2 µM) | relative viability (IPA-3 + Palbociclib; first compound 0.6325 µM) | relative viability (IPA-3 + Palbociclib; first compound 2 µM) | relative viability (IPA-3 + Palbociclib; first compound 6.325 µM) | relative viability (IPA-3 + Palbociclib; first compound 20 µM) | relative viability (RAF265 + Linsitinib; first compound 0.01 µM) | relative viability (RAF265 + Linsitinib; first compound 0.03162 µM) | relative viability (RAF265 + Linsitinib; first compound 0.1 µM) | relative viability (RAF265 + Linsitinib; first compound 0.3162 µM) | relative viability (RAF265 + Linsitinib; first compound 1 µM)
1 | NCI-H2023 | 0.275 | 0.243 | 0.248 | 0.301 | 0.258 | 1.09 | 1.02 | 1.06 | 1.09 | 0.908 | 0.441 | 0.347 | 0.414 | 0.442 | 0.41 | 0.588 | 0.743 | 0.776 | 0.644 | 0.424
2 | SK-MES-1 | 0.415 | 0.357 | 0.321 | 0.34 | 0.403 | 1.11 | 1.01 | 1.01 | 0.361 | 0.209 | 0.326 | 0.308 | 0.332 | 0.277 | 0.238 | 1.14 | 0.926 | 0.947 | 0.562 | 0.249
3 | NCI-H1793 | 0.318 | 0.352 | 0.314 | 0.367 | 0.418 | 0.351 | 0.379 | 0.316 | 0.336 | 0.21 | 0.345 | 0.288 | 0.311 | 0.318 | 0.371 | 0.794 | 0.767 | 0.779 | 0.46 | 0.376
4 | NCI-H2405 | 0.458 | 0.382 | 0.354 | 0.519 | 0.416 | 0.984 | 0.86 | 0.973 | 0.909 | 0.335 | 0.561 | 0.49 | 0.519 | 0.529 | 0.544 | 0.993 | 0.884 | 1.03 | 0.852 | 0.378
5 | NCI-H460 | 0.479 | 0.321 | 0.36 | 0.408 | 0.557 | 1.17 | 1.08 | 1.21 |  | 0.852 | 0.203 | 0.108 | 0.145 | 0.19 | 0.057 | 0.812 | 0.692 | 0.647 |  | 0.378
6 | NCI-H1755 | 0.455 | 0.358 | 0.397 | 0.345 | 0.536 | 0.999 | 0.879 | 0.764 | 0.671 | 0.356 | 0.464 | 0.488 | 0.422 | 0.43 | 0.44 | 0.959 | 1.06 | 0.988 | 0.825 | 0.579
7 | NCI-H1734 | 0.469 | 0.473 | 0.441 | 0.494 | 0.435 | 0.886 | 0.656 | 0.825 | 0.628 | 0.348 | 0.366 | 0.19 | 0.359 | 0.345 | 0.361 | 1.02 | 0.883 | 0.717 | 0.676 | 0.421
8 | EPLC-272H | 0.309 | 0.338 | 0.273 | 0.343 | 0.401 | 1.03 | 0.98 | 0.851 | 0.503 | 0.383 | 0.31 | 0.38 | 0.316 | 0.304 | 0.327 | 1.08 | 1.02 | 1.03 | 0.608 | 0.431
9 | NCI-H2126 | 0.48 | 0.505 | 0.449 | 0.503 | 0.512 | 0.813 | 0.826 | 0.866 | 0.687 | 0.616 | 0.33 | 0.369 | 0.335 | 0.343 | 0.375 | 0.712 | 0.691 | 0.743 | 0.574 | 0.49
